Experimental data: patent US7135615B2, “Chromosome doubling method” (The Curators of the University of Missouri, priority 2001, dated 2006)
Marks after values point to notes of the source that are not given here.

Legend:
[1] = tested on: maize haploid seedlings of origin A619; experiment: doubled haploid production trial, A619 haploids (Example 4); settings: 600 kPa, 2 days; for Ear: No. of kernels produced/ear: selfed
Experimental: (§1) Ten to nineteen plants were treated for each plot. Self pollinations were conducted on these treated haploids if there were fertile sectors on the tassel. Pollen grains were collected carefully on a sheet of paper and transferred to the silks repeatedly. Silks and husks were cut back prior to pollination in order to permit maximum seed set. The numbers of fertile tassel and ear sectors, as well as the numbers of anthers and selfed kernels were recorded. Statistical analyses were as described above.

[2] = tested on: maize haploid seedlings of various origin; experiment: doubled haploid production trial, combined data (Total/Average) of haploids of eight different origins; settings: for Ear: Plants with kernels after selfing % / Tassel: No. of fertile anthers extruded/tassel / Tassel: No. of fertile sectors/tassel / Tassel: Plants with fertile sectors % / Ear: Plants with kernels after selfing No. / Tassel: Plants with fertile sectors No. / No. of plants Survived / Ear: No. of kernels produced/ear: Total/Average of eight origins, 600 kPa, 2 days; for Ear: No. of kernels produced/ear: selfed
Experimental: as §1

Structure (SMILES): [N-]=[N+]=O [nitrous oxide gas, nitrous oxide]
- Ear: Plants with kernels after selfing % ([1]; 5 leaf stage): 17 n.s. %
- Tassel: No. of fertile anthers extruded/tassel ([1]; 5 leaf stage): 4.5 n.s /tassel
- Tassel: No. of fertile sectors/tassel ([1]; 5 leaf stage): 0.3 n.s. /tassel
- Tassel: Plants with fertile sectors % ([1]; 5 leaf stage): 25 n.s. %
- Ear: Plants with kernels after selfing No. ([1]; 5 leaf stage, 12 survived): 2
- Tassel: Plants with fertile sectors No. ([1]; 5 leaf stage, 12 survived): 3
- No. of plants Survived ([1]; 5 leaf stage, 12 treated): 12
- Ear: No. of kernels produced/ear ([1]; 5 leaf stage): 0.3 n.s. /ear
- Ear: Plants with kernels after selfing % ([1]; 6 leaf stage): 33%
- Tassel: No. of fertile anthers extruded/tassel ([1]; 6 leaf stage): 3.2 /tassel
- Tassel: No. of fertile sectors/tassel ([1]; 6 leaf stage): 0.6 /tassel
- Tassel: Plants with fertile sectors % ([1]; 6 leaf stage): 56%
- Ear: Plants with kernels after selfing No. ([1]; 6 leaf stage, 9 survived): 3
- Tassel: Plants with fertile sectors No. ([1]; 6 leaf stage, 9 survived): 5
- No. of plants Survived ([1]; 6 leaf stage, 9 treated): 9
- Ear: No. of kernels produced/ear ([1]; 6 leaf stage): 2.0 /ear
- Ear: Plants with kernels after selfing % ([1]; 7 leaf stage): 31%
- Tassel: No. of fertile anthers extruded/tassel ([1]; 7 leaf stage): 8.2 /tassel
- Tassel: No. of fertile sectors/tassel ([1]; 7 leaf stage): 1.6 /tassel
- Tassel: Plants with fertile sectors % ([1]; 7 leaf stage): 54%
- Ear: Plants with kernels after selfing No. ([1]; 7 leaf stage, 13 survived): 4
- Tassel: Plants with fertile sectors No. ([1]; 7 leaf stage, 13 survived): 7
- No. of plants Survived ([1]; 7 leaf stage, 14 treated): 13
- Ear: No. of kernels produced/ear ([1]; 7 leaf stage): 1.6 /ear
- Ear: Plants with kernels after selfing % ([2]; 5 leaf stage): 36** %
- Tassel: No. of fertile anthers extruded/tassel ([2]; 5 leaf stage): 32.3** /tassel
- Tassel: No. of fertile sectors/tassel ([2]; 5 leaf stage): 0.9** /tassel
- Tassel: Plants with fertile sectors % ([2]; 5 leaf stage): 61** %
- Ear: Plants with kernels after selfing No. ([2]; 5 leaf stage, 95 survived): 33
- Tassel: Plants with fertile sectors No. ([2]; 5 leaf stage, 95 survived): 58
- No. of plants Survived ([2]; 5 leaf stage, 102 treated): 95
- Ear: No. of kernels produced/ear ([2]; 5 leaf stage): 4.4** /ear
- Ear: Plants with kernels after selfing % ([2]; 6 leaf stage): 44%
- Tassel: No. of fertile anthers extruded/tassel ([2]; 6 leaf stage): 74.3 /tassel
- Tassel: No. of fertile sectors/tassel ([2]; 6 leaf stage): 2.1** /tassel
- Tassel: Plants with fertile sectors % ([2]; 6 leaf stage): 78** %
- Ear: Plants with kernels after selfing No. ([2]; 6 leaf stage, 90 survived): 39
- Tassel: Plants with fertile sectors No. ([2]; 6 leaf stage, 90 survived): 70
- No. of plants Survived ([2]; 6 leaf stage, 97 treated): 90
- Ear: No. of kernels produced/ear ([2]; 6 leaf stage): 8.6** /ear
- Ear: Plants with kernels after selfing % ([2]; 7 leaf stage): 34** %
- Tassel: No. of fertile anthers extruded/tassel ([2]; 7 leaf stage): 63.5** /tassel
- Tassel: No. of fertile sectors/tassel ([2]; 7 leaf stage): 2.8** /tassel
- Tassel: Plants with fertile sectors % ([2]; 7 leaf stage): 74** %
- Ear: Plants with kernels after selfing No. ([2]; 7 leaf stage, 90 survived): 29
- Tassel: Plants with fertile sectors No. ([2]; 7 leaf stage, 90 survived): 67
- No. of plants Survived ([2]; 7 leaf stage, 101 treated): 90
- Ear: No. of kernels produced/ear ([2]; 7 leaf stage): 7.0** /ear
- effect of treatment on fertility ([2]; haploids derived from A619, B73 and W22×W23): no significant effect
- treated haploids that produced double haploid progenies after self pollination ([2]; haploids induced from Oh43, A619×B73, and Oh43×Mol7): about 30%
